US11484539B2, “Compounds and their uses for alleviating menopause-associated symptoms” (Estetra SPRL, priority 2018, dated 2022)

Tested on: post-menopausal women
Assay: Weekly frequency of moderate to severe VMS, dose-finding study
Type: in vivo
Settings: for Difference with placebo, LS adjusted mean, absolute change in weekly frequency of moderate to severe VMS / Difference with placebo, LS adjusted mean, relative change in weekly frequency of moderate to severe VMS: 10 mg E4 vs placebo; for Differences with placebo (including ineffective doses 2.5 mg and 5 mg), relative change in weekly frequency of moderate to severe VMS, LS adjusted mean / Differences with placebo (including ineffective doses 2.5 mg and 5 mg), relative change in weekly frequency of moderate to severe VMS, p_value: 10.0 mg vs 0 mg; for Relative change in weekly frequency of moderate to severe VMS, LS adjusted mean: analysis with placebo grouped with 2.5 and 5 mg; for LS adjusted mean change from baseline in weekly frequency of moderate to severe VMS / LS adjusted mean relative change (%) from baseline in weekly frequency of moderate to severe VMS: 15 mg E4
Excerpt: To determine the Minimum Effective Dose (MED), firstly the selection criteria required that patients presented at least 7 moderate to severe VMS/day or at least 50 moderate to severe VMS/week in the week preceding randomization. Secondly, a placebo group was included in a double-blind fashion. Thirdly, the total patient number was such that statistical significance could be obtained between separate arms of the study. Fourthly, the absolute change from baseline in weekly frequency of moderate to severe VMS was taken into account. An analysis of covariance (ANCOVA) was performed based on the untransformed change in weekly frequency of moderate to severe VMS from baseline. Finally, the change in severity from baseline was evaluated. For this, the Severity Scoring System of VMS was documented by the subjects as follows: • a score of Mild (1) for a sensation of heat without sweating; • a score of Moderate (2) for a sensation of heat with sweating/the subject is able to continue activity; and • a score of Severe (3) for a sensation of heat with sweating/which causes cessation of activity.
Enrolment was approximately 18 months. Individual subject participation was up to 27 weeks: up to 6 weeks pre-screening and washout, up to 4 weeks screening and run-in period, up to 91 days (13 weeks) of E4/placebo treatment followed by 2 weeks (14 days) of progestin therapy and a Follow up visit 1 week after completion of progestin therapy in non-hysterectomised subjects only.
To define the minimum effective dose (MED) of the oral dose of E4 by evaluating changes in frequency and in severity of moderate to severe vasomotor symptoms (VMS).
This was a prospective, multicentre, randomised, placebo-controlled, double-blinded, dose-finding study.
Eligible subjects were hysterectomised and non-hysterectomised post-menopausal women aged 40 to 65 years, inclusive, presenting at least 7 moderate to severe hot flushes/day or at least 50 moderate to severe hot flushes/week.
The subjects have met all of the following inclusion criteria at the randomization visit. These criteria were assessed during the screening period: • 1. Women aged 40 to 65 years, inclusive, presenting at least 7 moderate to severe hot flushes/day or at least 50 moderate to severe hot flushes/week in the week preceding randomization. • 2. Body Mass Index (BMI) between 18.0 and 35.0 kg/m^2, inclusive. • 3. Post-menopausal status defined as levels of follicle stimulating hormone (FSH) >40 IU/L and: • amenorrhoea for at least 12 consecutive months or, • amenorrhoea for at least 6 months with estradiol (E2)<20 pg/mL or, • at least 6 weeks post-surgical bilateral oophorectomy with or without hysterectomy with a copy of the pathology report or a statement on letterhead from the subject's physician documenting both ovaries were removed is required. • 4. For non-hysterectomised women: intact uterus with bi-layer endometrial thickness […] on TVUS. • 5. Negative pregnancy test. • 6. Good physical and mental health, in the judgement of the Principal Investigator (PI), on the basis of medical, surgical and gynaecological history, physical examination, gynaecological examination, clinical laboratory, and vital signs. • 7. Subject has provided signed and dated written informed consent before admission to the study. • 8. Subject is able to understand and comply with the protocol requirements, instructions, and protocol-stated restrictions. Exclusion Criteria:
All treatments (Estetrol, hereinafter, E4, [2.5 mg, 5 mg, 10 mg, 15 mg] capsule) were administered once daily (QD) per os for at least 12 consecutive weeks until the last biological assessments (Day 91 maximum) had been performed.
In order to analyse the data recorded in this study, treatment groups have been compared using an ANCOVA (analysis of covariance) with respect to the change in weekly frequency of moderate to severe VMS from baseline to weeks 4 and 12. […]

[1] = week 4, ANCOVA with study centre
[2] = week 12, ANCOVA with study centre

How did the “Mean change from baseline in weekly frequency of moderate to severe VMS” value (10 mg E4 QD per os, week 8) turn out when `C[C@]12CC[C@@H]3c4ccc(O)cc4CC[C@H]3[C@@H]1[C@@H](O)[C@@H](O)[C@@H]2O` [E4, 1,3,5 (10)-estratrien-3,15alpha,16alpha,17beta-tetrol] was run?
The value was −44.46.

What about the “Relative change (% from baseline) in weekly frequency of moderate to severe VMS, mean” value (from here on “Relative change (% from baseline)”) (10 mg E4 QD per os, week 8) of the same compound?
Its value is −68%.

What about the “Mean change from baseline in weekly frequency of moderate to severe VMS” value (10 mg E4 QD per os, week 9) of the same compound?
Its value is −45.19.

And the “Relative change (% from baseline)” value (10 mg E4 QD per os, week 9)?
Its value is −69%.

What about the “Mean change from baseline in weekly frequency of moderate to severe VMS” value (10 mg E4 QD per os, week 10) of the same compound?
The value was −45.93.

And the “Relative change (% from baseline)” value (10 mg E4 QD per os, week 10)?
The value was −70%.

And the “Mean change from baseline in weekly frequency of moderate to severe VMS” value (10 mg E4 QD per os, week 11)?
The value was −45.90.

And the “Relative change (% from baseline)” value (10 mg E4 QD per os, week 11)?
Its value is −70%.

And the “Mean change from baseline in weekly frequency of moderate to severe VMS” value (10 mg E4 QD per os, week 12)?
The value was −47.21.

What about the “Relative change (% from baseline)” value (10 mg E4 QD per os, week 12) of the same compound?
The value was −72%.

What about the “Difference with placebo, LS adjusted mean, absolute change in weekly frequency of moderate to severe VMS” value [1] of the same compound?
Its value is −1.571.

And the “Difference with placebo, LS adjusted mean, relative change in weekly frequency of moderate to severe VMS” value [1]?
The value was −0.05376.

What about the “Difference with placebo, LS adjusted mean, absolute change in weekly frequency of moderate to severe VMS” value (week 4, without site effect) of the same compound?
The value was −2.222.

What about the “Difference with placebo, LS adjusted mean, relative change in weekly frequency of moderate to severe VMS” value (week 4, without site effect) of the same compound?
The value was −0.06517.

And the “Difference with placebo, LS adjusted mean, absolute change in weekly frequency of moderate to severe VMS” value [2]?
Its value is −2.103.

And the “Difference with placebo, LS adjusted mean, relative change in weekly frequency of moderate to severe VMS” value [2]?
Its value is −0.05804.

What about the “Difference with placebo, LS adjusted mean, absolute change in weekly frequency of moderate to severe VMS” value (week 12, without site effect) of the same compound?
Its value is −2.603.

What about the “Difference with placebo, LS adjusted mean, relative change in weekly frequency of moderate to severe VMS” value (week 12, without site effect) of the same compound?
Its value is −0.06624.

What about the “Differences with placebo (including ineffective doses 2.5 mg and 5 mg), relative change in weekly frequency of moderate to severe VMS, LS adjusted mean” value (week 4) of the same compound?
Its value is −0.07645.

What about the “Differences with placebo (including ineffective doses 2.5 mg and 5 mg), relative change in weekly frequency of moderate to severe VMS, p_value” (week 4) of the same compound?
The value was 0.2615.

What about the “Differences with placebo (including ineffective doses 2.5 mg and 5 mg), relative change in weekly frequency of moderate to severe VMS, LS adjusted mean” value (week 12) of the same compound?
The value was −0.08276.

What about the “Differences with placebo (including ineffective doses 2.5 mg and 5 mg), relative change in weekly frequency of moderate to severe VMS, p_value” (week 12) of the same compound?
The value was 0.1798.

What about the “Relative change (% from baseline)” value (10 mg, Week 12) of the same compound?
Its value is −72%.

And the “Relative change (% from baseline)” value (10 mg, week 0)?
Its value is 0%.

What about the “Relative change (% from baseline)” value (10 mg, week 1) of the same compound?
The value was −21%.

What about the “Relative change (% from baseline)” value (10 mg, week 2) of the same compound?
The value was −37%.

What about the “Relative change (% from baseline)” value (10 mg, week 3) of the same compound?
Its value is −48%.

What about the “Relative change (% from baseline)” value (10 mg, week 4) of the same compound?
The value was −55%.

What about the “Relative change in weekly frequency of moderate to severe VMS, LS adjusted mean” value (10 mg, week 4) of the same compound?
The value was −0.5442.

What about the “Relative change (% from baseline)” value (10 mg, week 5) of the same compound?
The value was −60%.

And the “Relative change (% from baseline)” value (10 mg, week 6)?
Its value is −65%.

And the “Relative change (% from baseline)” value (10 mg, week 7)?
The value was −66%.

What about the “Relative change (% from baseline)” value (10 mg, week 8) of the same compound?
The value was −68%.

What about the “Relative change (% from baseline)” value (10 mg, week 9) of the same compound?
The value was −69%.

What about the “Relative change (% from baseline)” value (10 mg, week 10) of the same compound?
Its value is −70%.

What about the “Relative change (% from baseline)” value (10 mg, week 11) of the same compound?
Its value is −70%.

What about the “Relative change in weekly frequency of moderate to severe VMS, LS adjusted mean” value (10 mg, week 12) of the same compound?
The value was −0.7008.

And the “LS adjusted mean change from baseline in weekly frequency of moderate to severe VMS” value (“LS adjusted mean change from baseline” below) [1]?
The value was −43.6.

What about the LS adjusted mean relative change (%) from baseline in weekly frequency of moderate to severe VMS [1] of the same compound?
Its LS adjusted mean relative change (%) from baseline in weekly frequency of moderate to severe VMS is -64.7%.

What about the “LS adjusted mean change from baseline” value (week 4, without site effect) of the same compound?
Its value is −44.36.

What about the LS adjusted mean relative change (%) from baseline in weekly frequency of moderate to severe VMS (week 4, without site effect) of the same compound?
The LS adjusted mean relative change (%) from baseline in weekly frequency of moderate to severe VMS was -66%.

And the “LS adjusted mean change from baseline” value [2]?
Its value is −53.83.

And the LS adjusted mean relative change (%) from baseline in weekly frequency of moderate to severe VMS [2]?
The LS adjusted mean relative change (%) from baseline in weekly frequency of moderate to severe VMS was -80.1%.

And the “LS adjusted mean change from baseline” value (week 12, without site effect)?
Its value is −54.91.

What about the LS adjusted mean relative change (%) from baseline in weekly frequency of moderate to severe VMS (week 12, without site effect) of the same compound?
The LS adjusted mean relative change (%) from baseline in weekly frequency of moderate to severe VMS was -82.3%.

And the “Mean change from baseline in weekly frequency of moderate to severe VMS” value (15 mg E4 QD per os, week 1)?
The value was −14.86.

And the “Relative change (% from baseline)” value (15 mg E4 QD per os, week 1)?
The value was −22%.

What about the “Mean change from baseline in weekly frequency of moderate to severe VMS” value (15 mg E4 QD per os, week 2) of the same compound?
Its value is −29.19.

And the “Relative change (% from baseline)” value (15 mg E4 QD per os, week 2)?
The value was −46%.

And the “Mean change from baseline in weekly frequency of moderate to severe VMS” value (15 mg E4 QD per os, week 3)?
The value was −36.30.

And the “Relative change (% from baseline)” value (15 mg E4 QD per os, week 3)?
Its value is −57%.
